# Source: patent US20120231482A1, “METHOD, KIT OR DIAGNOSTIC FOR THE DETECTION OF REAGENTS WHICH INDUCE ALTERED CONTRACTILITY” (THE JOHNS HOPKINS UNIVERSITY, priority 2009, published 2012)
# How the values were obtained:
# skeletal muscle = experiment: Steady-state force-[Ca2+]i relations of skeletal muscle; type: cell-based, rat
# Text: FIG. 6. MLC1 Cys81 necessary for increase in Fmax induced by treatment with HNO donors. (a) Sequence alignment comparing isoforms of rat cardiac (SEQ ID NO:16) and skeletal MLC1 (SEQ ID NO:17) in the region surrounding cardiac Cys81. (b) Steady-state force-[Ca^2+]i relations in control (o) versus NCA-treated (•) from cardiac or skeletal trabeculae indicating loss of increase in maximum force with loss of Cys81 in skeletal isoform with NCA (n=5, each group). (c) 2D Gel shift assay (non-reduced, NR and reduced, DTT) using 10 μg of skeletal or cardiac myofibrils indicating loss of higher molecular weight forms of MLC1 in skeletal HNO treated preparations while maintaining higher molecular weight form of TM (n=3).
# To determine if MLC1 Cys81 is involved in the increased maximum force production, the effect of HNO donors was investigated in skeletal muscle preparations. Skeletal muscle isoforms of myofilament proteins contain all of the potential target Cys except for MLC1, which lacks the candidate site Cys81 providing a natural mutant sequence (FIG. 6A). […] The same insensitivity of Fmax to AS was also observed in skinned skeletal muscles (data not shown).
# myosin light chain 1 = molecular target: T1, myosin light chain 1 (Rattus norvegicus, UniProt P16409); experiment: Modified biotin switch assay, sites of HNO modification; type: biochemical; details: for number of independent observations of peptide: Cys 81, tryptic peptide ITYGQCGDVLR, 25 μM NCA or 500 μM AS; for Position of modified Cys: myosin light chain 1, Table 2
# T1 construct: Rat myofibrillar preparations, as described in [7], were obtained from frozen ventricles (Pel Freez Biologicals); tissue Pel Freez Biologicals; host or cells: myofibrils from frozen rat ventricles
# T1 sequence (P16409 whole entry): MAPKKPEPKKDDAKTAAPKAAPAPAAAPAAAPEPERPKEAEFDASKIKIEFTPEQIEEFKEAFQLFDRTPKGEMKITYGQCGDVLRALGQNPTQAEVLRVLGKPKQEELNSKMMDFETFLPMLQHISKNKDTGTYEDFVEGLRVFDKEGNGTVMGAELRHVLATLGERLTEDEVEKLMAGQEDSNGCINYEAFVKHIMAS
# Experimental: (§1) Rat myofibrillar preparations, as described in [7], were obtained from frozen ventricles (Pel Freez Biologicals) minced in 20 volumes/tissue weight of 4° C. relax buffer (SRB (75 mM KCL, 10 mM imidazole pH 7.2, 2 mM MgCl2) plus 4 mM phosphocreatine, 1 mM ATP, 50 mM BDM, 1 mM benzamidine-HCL, 0.1 mM PMSF, 1 μg/ml leupeptin, 1 μg/ml pepstatin, 1% (v/v) Trixon X-100) and adjusted to 10 mM EDTA. Minced preparations were centrifuged for 8 min at 3000xg and the supernant was decanted. Resulting pellets were resuspended in 10 volumes of SRB plus 1% Triton X-100 and subjected to 6 strokes in a Duall tissue homogenizer and centrifuged as above. Pellets were gently resuspended and centrifuged as above twice more in SRB including 1% (v/v) Triton X-100, twice in SRB lacking Triton X-100 and once in K-60 buffer (60 mM KCL, 20 mM MOPS, 2 mM MgCl2 pH 7) before being resuspended in 5 volumes of K-60.
# (§2) Detection of HNO modifications by Modified Biotin Switch. HNO modified thiols were detected using a modification to the standard biotin switch protocol. In brief, 100 μg of rat myofibrils/treatment were diluted to 0.5 μg/μl in HEN (250 mM HEPES pH 7.7, 1 mM EDTA and 0.1 mM neocuproine) including 0.1% (w/v) SDS and exposed to a treatment for 10 min at 37° C. which was subsequently removed by acetone precipitation. Remaining free thiols were blocked by addition of 300 μl of HEN including 2.5% (w/v) SDS and 20 mM N-ethylmaleimide (NEM), incubated for 20 min at 50° C. Excess NEM was removed by acetone precipitation. HNO and/or NO modified thiols were reduced using 5 mM DTT or 1 mM ascorbate in 150 μl of HEN including 1% (w/v) SDS and biotinylated with 0.8 mM Biotin-HPDP (Pierce) for one hour at room temperature. Excess biotin-HPDP was removed by acetone precipitation (2 volumes) and resultant pellets were carefully washed with an additional volume of acetone. Biotinylated proteins were resuspended in 1 ml of HEN including 0.1% (w/v) SDS and captured by incubation with 15 μl of washed, packed Ultralink Immobilized Streptavidin (Pierce) for one hour at room temperature. Beads were washed four times in 50 bead volumes of HEN (twice including 0.1% (w/v) SDS, twice including 600 mM NaCl) and twice with EB (20 mM HEPES pH 7.7, 100 mM NaCl, 1 mM EDTA). Captured proteins were eluted with 40 μl of EB containing 100 mM DTT, mixed with 15 μl of 4×LDS sample buffer, boiled, separated by SDS PAGE and silver stained. For MS studies, biotinylated proteins were digested overnight with trypsin (Promega) prior to capture and washed ten additional times with 5 mM ammonium bicarbonate/20% acetonitrile before being eluted in 100 μl of wash buffer including 100 mM DTT as described. Captured peptides were identified using a LTQ linear ion trap tandem mass spectrometer (ThermoFinnigan, Waltham Mass. USA) with data searched against the rat IPI primary sequence database using the sorcerer searching platform (sagen).
# (§3) To investigate the modifications that underlie the difference seen in the functional effect of these two compounds we performed an analysis on the myofilament proteins, using a modified biotin-switch method, followed by mass spectrometry for identification (FIG. 3). Following treatment with HNO or control compounds, unmodified cysteines are blocked with NEM before treatment with a reducing agent and labeling the exposed cysteines with a biotin group (FIG. 3A). In this case, 5 mM DTT was used as the reducing agent because it was shown in the physiological studies to reverse the effect of the treatment. […] Tryptic or chymotryptic peptides containing the modified cysteine residues were captured and identified by LC/MS/MS. […] To parse the role of candidate sites of modification between these two effects a comparative proteomics experiment was designed where modifications specific to NCA treatment would be considered candidates for the Ca^2+ effect while sites identified in common between AS and NCA could be candidates for the force effect (FIG. 3C). […]
# troponin C (cardiac) = molecular target: T2, troponin C (cardiac) (Rattus norvegicus, UniProt Q4PP99); experiment: as above; type: biochemical; details: for number of independent observations of peptide: Cys 35, tryptic peptide AAFDIFVLGAEDGCISTK, 25 μM NCA or 500 μM AS; for Position of modified Cys: troponin C, Table 2
# T2 construct: Rat myofibrillar preparations, as described in [7], were obtained from frozen ventricles (Pel Freez Biologicals); tissue Pel Freez Biologicals; host or cells: myofibrils from frozen rat ventricles
# Experimental: as §1, §2, §3
# α actin = molecular target: T3, α actin (Rattus norvegicus, UniProt P68035); experiment: as above; type: biochemical; details: 25 μM NCA or 500 μM AS
# T3 construct: Rat myofibrillar preparations, as described in [7], were obtained from frozen ventricles (Pel Freez Biologicals); tissue Pel Freez Biologicals; host or cells: myofibrils from frozen rat ventricles
# Experimental: as §1, §2, §3
# myosin heavy chain α/β = experiment: as above; type: biochemical, rat; details: for number of independent observations of peptide: 25 μM NCA or 500 μM AS; for Position of modified Cys: myosin heavy chain (α/β), Table 2
# Experimental: as §1, §2, §3
# α actinin = experiment: as above; type: biochemical, rat; details: for number of independent observations of peptide: Cys 889, tryptic peptide ELPPDQAQYCIKR, 25 μM NCA or 500 μM AS; for Position of modified Cys: α-Actinin, Table 2
# Experimental: as §1, §2, §3
# [1] = Cys 12, tryptic peptide DDEETTALVCDNGSLVK
# [2] = Cys 219, tryptic peptide LCYVALDFENEMATAASSSLEK
Structure (SMILES),"Ca50 (skeletal muscle; skeletal muscle, NCA 25 μmol/L)","Fmax (skeletal muscle; skeletal muscle, NCA 25 μmol/L)","Hill (skeletal muscle; skeletal muscle, NCA 25 μmol/L)",number of independent observations of peptide (myosin light chain 1),Position of modified Cys (myosin light chain 1),number of independent observations of peptide (troponin C (cardiac)),Position of modified Cys (troponin C (cardiac)),number of independent observations of peptide (α actin; [1]),number of independent observations of peptide (α actin; [2]),"number of independent observations of peptide (α actin; Cys 257, chymotryptic peptide RCPETLFQPSF)","number of independent observations of peptide (myosin heavy chain α/β; Cys 1750, tryptic peptide MDADLSQLQTEVEEAVQECR)",Position of modified Cys (myosin heavy chain α/β),number of independent observations of peptide (α actinin),Position of modified Cys (α actinin),"Fmax (skeletal muscle; skinned skeletal muscles, AS, data not shown)","number of independent observations of peptide (α actin; Cys 12, chymotryptic peptide VCDNGSLVKAGF)","number of independent observations of peptide (myosin heavy chain α/β; Cys 907, chymotryptic peptide ADAEERCDQL)"
"CC(=O)OC1(N=O)CCCCC1 [NCA, 1-nitrosocyclohexylacetate]",0.8 ± 0.1 µM,33±3.8 mN/mm^2,4.36±0.81,2,81,2,35,3,1,1,2,1750(α/β),2,889,,,
"[Na+].[Na+].[O-][N+]([O-])=NO [AS, Angeli's Salt]",,,,2,81,2,35,3,1,,,907(α/β),3,889,insensitivity,2,2
